Experimental data from ChEMBL document CHEMBL1138926, “New pyrrolopyrimidin-6-yl benzenesulfonamides: potent A2B adenosine receptor antagonists” (Bioorg Med Chem Lett, 2006).
≈ marks a conversion by molar mass, not a printed value.

Legend:
Adenosine receptor A2b = biological target: T1, Adenosine receptor A2b (Homo sapiens, UniProt P29275); test: Displacement of [3H]DPCPX from human adenosine A2B receptor expressed in HEK293 cells; format: cell-based
T1 sequence (P29275 whole entry): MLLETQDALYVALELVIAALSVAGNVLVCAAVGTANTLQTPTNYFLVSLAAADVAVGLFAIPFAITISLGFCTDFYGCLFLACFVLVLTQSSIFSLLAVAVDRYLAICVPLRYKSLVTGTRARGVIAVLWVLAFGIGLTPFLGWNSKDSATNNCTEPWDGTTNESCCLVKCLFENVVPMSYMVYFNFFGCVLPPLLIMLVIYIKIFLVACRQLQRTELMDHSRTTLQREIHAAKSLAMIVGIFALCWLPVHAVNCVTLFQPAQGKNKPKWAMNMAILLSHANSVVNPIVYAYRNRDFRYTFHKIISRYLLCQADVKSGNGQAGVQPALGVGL

Adenosine receptor A1 = biological target: T2, Adenosine receptor A1 (Homo sapiens, UniProt P30542); test: Displacement of [3H]DPCPX from human adenosine A1 receptor expressed in CHO cells; format: cell-based
T2 sequence (P30542 whole entry): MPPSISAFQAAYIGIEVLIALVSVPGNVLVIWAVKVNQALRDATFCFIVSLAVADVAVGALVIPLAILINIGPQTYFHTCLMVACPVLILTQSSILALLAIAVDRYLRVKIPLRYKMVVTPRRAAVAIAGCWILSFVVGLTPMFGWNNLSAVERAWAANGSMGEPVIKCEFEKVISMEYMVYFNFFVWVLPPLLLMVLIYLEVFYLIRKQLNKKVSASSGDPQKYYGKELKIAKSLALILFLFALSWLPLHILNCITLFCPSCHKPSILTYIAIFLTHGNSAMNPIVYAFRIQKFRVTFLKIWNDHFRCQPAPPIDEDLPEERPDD

Adenosine receptor A3 = biological target: T3, Adenosine receptor A3 (Homo sapiens, UniProt P0DMS8); test: Displacement of [3H]NECA from human adenosine A3 receptor expressed in HeLa cells; format: cell-based
T3 sequence (P0DMS8 whole entry): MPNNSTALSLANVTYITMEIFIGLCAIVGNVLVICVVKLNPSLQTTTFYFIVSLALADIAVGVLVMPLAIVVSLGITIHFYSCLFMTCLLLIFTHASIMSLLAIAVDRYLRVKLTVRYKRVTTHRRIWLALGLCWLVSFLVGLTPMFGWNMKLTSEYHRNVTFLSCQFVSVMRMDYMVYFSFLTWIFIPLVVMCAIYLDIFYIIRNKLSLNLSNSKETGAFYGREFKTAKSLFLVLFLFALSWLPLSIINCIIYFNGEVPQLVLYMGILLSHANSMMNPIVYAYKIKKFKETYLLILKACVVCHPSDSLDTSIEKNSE

[1] = Solubility of the compound; format: physicochemical
[2] = AUC in rat at 10 mg/kg, po; format: ADME, organism-based; design: dose 10 mg/kg, route oral; settings: plasma
[3] = Solubility at pH 1.2; format: physicochemical; settings: buffer
[4] = Tmax in rat at 10 mg/kg, po; format: ADME, organism-based; design: dose 10 mg/kg, route oral; settings: in vivo
[5] = biological target: Adenosine receptors; A1 & A2b (Homo sapiens) (UniProt P30542+P29275); test: Selectivity for human adenosine A2B receptor over adenosine A1 receptor; format: protein assay
[6] = biological target: Adenosine receptors; A2b & A3 (Homo sapiens) (UniProt P29275+P0DMS8); test: Selectivity for human adenosine A2B receptor over adenosine A3 receptor; format: protein assay

IC50 (Adenosine receptor A2b) | IC50 (Adenosine receptor A1) | IC50 (Adenosine receptor A3) | Structure (SMILES) | other results
0.09 µM | – | – | CN(C1CCN(Cc2ccccc2)CC1)S(=O)(=O)c1ccc(-c2cc3c([nH]2)c(=O)n(C)c(=O)n3C)cc1 | –
– | 0.123 µM | 0.844 µM | CCCn1c(=O)c2[nH]c(-c3ccc(S(=O)(=O)NCCc4ccccn4)cc3)cc2n(C)c1=O | –
0.01 µM | – | – | Cn1c(=O)c2[nH]c(-c3ccc(S(=O)(=O)N4CCN(Cc5ccc(F)cc5)CC4)cc3)cc2n(C)c1=O | –
– | 0.152 µM | 8.89 µM | Cn1c(=O)c2[nH]c(-c3ccc(S(=O)(=O)N4CCN(Cc5cccc(F)c5)CC4)cc3)cc2n(C)c1=O | –
0.043 µM | – | – | Cn1c(=O)c2[nH]c(-c3ccc(S(=O)(=O)NC4CCN(Cc5ccccc5)CC4)cc3)cc2n(C)c1=O | –
0.012 µM | 0.205 µM | 4.31 µM | CCn1c(=O)c2[nH]c(-c3ccc(S(=O)(=O)NC4CCN(Cc5ccc(F)cc5)CC4)cc3)cc2n(CC)c1=O | –
0.02 µM | 0.101 µM | 38 µM | COc1ccc(CNS(=O)(=O)c2ccc(-c3cc4c([nH]3)c(=O)n(C)c(=O)n4C)cc2)nc1 | –
– | 0.396 µM | 6.44 µM | Cn1c(=O)c2[nH]c(-c3ccc(S(=O)(=O)NCCOc4ccccn4)cc3)cc2n(C)c1=O | –
– | 0.102 µM | 5.25 µM | Cn1c(=O)c2[nH]c(-c3ccc(S(=O)(=O)N4CCN(Cc5ccc(Cl)s5)CC4)cc3)cc2n(C)c1=O | –
– | – | – | Cn1c(=O)c2[nH]c(-c3ccc(OCC(=O)Nc4ccc(Br)cc4)cc3)cc2n(C)c1=O | solubility [1]: < 10 µg/mL; AUC [2]: < 20 ng·h/mL
– | 0.415 µM | 3.17 µM | Cn1c(=O)c2[nH]c(-c3ccc(S(=O)(=O)N4CCN(Cc5ccccc5)CC4)cc3)cc2n(C)c1=O | solubility [3]: 70 µg/mL (≈ 142 µM); AUC [2]: 252 ng·h/mL; Tmax [4]: 6 h
0.006 µM | – | – | Cn1c(=O)c2[nH]c(-c3ccc(S(=O)(=O)N4CCN(c5ccccc5)CC4)cc3)cc2n(C)c1=O | solubility [1]: < 10 µg/mL
– | 0.068 µM | 1.32 µM | Cn1c(=O)c2[nH]c(-c3ccc(S(=O)(=O)Nc4ccccn4)cc3)cc2n(C)c1=O | –
0.001 µM | 0.183 µM | 12.3 µM | Cn1c(=O)c2[nH]c(-c3ccc(S(=O)(=O)N4CCN(Cc5ccc(Br)cc5)CC4)cc3)cc2n(C)c1=O | Selectivity ratio [5]: 183; Selectivity ratio [6]: 12300
0.027 µM | – | – | Cn1c(=O)c2[nH]c(-c3ccc(S(=O)(=O)N4CCN(Cc5ccncc5)CC4)cc3)cc2n(C)c1=O | –
0.006 µM | 0.37 µM | 0.95 µM | CCCn1c(=O)c2[nH]c(-c3ccc(S(=O)(=O)N4CCN(Cc5ccc(C#N)cc5)CC4)cc3)cc2n(C)c1=O | Selectivity ratio [5]: 62; Selectivity ratio [6]: 160
0.075 µM | 0.14 µM | 18.9 µM | CCn1c(=O)c2[nH]c(-c3ccc(S(=O)(=O)NCCc4ccccn4)cc3)cc2n(CC)c1=O | –
– | 0.15 µM | 2.08 µM | Cn1c(=O)c2[nH]c(-c3ccc(S(=O)(=O)NCCc4ccccn4)cc3)cc2n(C)c1=O | solubility [3]: 57 µg/mL (≈ 130 µM); AUC [2]: 985 ng·h/mL; Tmax [4]: 6 h
– | 0.054 µM | 1.53 µM | COc1ccc(NS(=O)(=O)c2ccc(-c3cc4c([nH]3)c(=O)n(C)c(=O)n4C)cc2)cn1 | –
0.015 µM | 0.35 µM | 21.9 µM | CCn1c(=O)c2[nH]c(-c3ccc(S(=O)(=O)N4CCN(Cc5cccc(F)c5)CC4)cc3)cc2n(CC)c1=O | –
0.018 µM | 0.059 µM | 1.47 µM | CCCn1c(=O)c2[nH]c(-c3ccc(S(=O)(=O)NC4CCN(Cc5ccccc5)CC4)cc3)cc2n(CCC)c1=O | –
0.007 µM | 0.126 µM | – | Cn1c(=O)c2[nH]c(-c3ccc(S(=O)(=O)N4CCN(Cc5ccc(F)cc5F)CC4)cc3)cc2n(C)c1=O | –
0.013 µM | 0.102 µM | 14.9 µM | CCCn1c(=O)n(C)c(=O)c2[nH]c(-c3ccc(S(=O)(=O)N4CCN(Cc5ccc6c(c5)OCO6)CC4)cc3)cc21 | –
0.017 µM | – | – | CCCn1c(=O)n(C)c(=O)c2[nH]c(-c3ccc(S(=O)(=O)N4CCN(Cc5cccc(F)c5)CC4)cc3)cc21 | –
0.015 µM | 0.012 µM | 7.6 µM | CCCn1c(=O)c2[nH]c(-c3ccc(S(=O)(=O)NCc4ccc(OC)cn4)cc3)cc2n(C)c1=O | –
